In US7638509B2, “Diene compounds and formulations” (priority 2003, dated 2009):

Columns and labels:
[1] = biological target: T1, AR with coactivator ARA70 (Homo sapiens, UniProt P10275); experiment: ARA70 enhancement of AR transactivation, MMTV-Luc in DU145 cells with pSG5-AR and pSG5-ARA70; type: cell-based; conditions: DU145, pSG5-AR + MMTV-Luc with or without pSG5-ARA70
T1 construct: expressed in transfected cells; host or cells: DU145
T1 sequence (P10275 1-920): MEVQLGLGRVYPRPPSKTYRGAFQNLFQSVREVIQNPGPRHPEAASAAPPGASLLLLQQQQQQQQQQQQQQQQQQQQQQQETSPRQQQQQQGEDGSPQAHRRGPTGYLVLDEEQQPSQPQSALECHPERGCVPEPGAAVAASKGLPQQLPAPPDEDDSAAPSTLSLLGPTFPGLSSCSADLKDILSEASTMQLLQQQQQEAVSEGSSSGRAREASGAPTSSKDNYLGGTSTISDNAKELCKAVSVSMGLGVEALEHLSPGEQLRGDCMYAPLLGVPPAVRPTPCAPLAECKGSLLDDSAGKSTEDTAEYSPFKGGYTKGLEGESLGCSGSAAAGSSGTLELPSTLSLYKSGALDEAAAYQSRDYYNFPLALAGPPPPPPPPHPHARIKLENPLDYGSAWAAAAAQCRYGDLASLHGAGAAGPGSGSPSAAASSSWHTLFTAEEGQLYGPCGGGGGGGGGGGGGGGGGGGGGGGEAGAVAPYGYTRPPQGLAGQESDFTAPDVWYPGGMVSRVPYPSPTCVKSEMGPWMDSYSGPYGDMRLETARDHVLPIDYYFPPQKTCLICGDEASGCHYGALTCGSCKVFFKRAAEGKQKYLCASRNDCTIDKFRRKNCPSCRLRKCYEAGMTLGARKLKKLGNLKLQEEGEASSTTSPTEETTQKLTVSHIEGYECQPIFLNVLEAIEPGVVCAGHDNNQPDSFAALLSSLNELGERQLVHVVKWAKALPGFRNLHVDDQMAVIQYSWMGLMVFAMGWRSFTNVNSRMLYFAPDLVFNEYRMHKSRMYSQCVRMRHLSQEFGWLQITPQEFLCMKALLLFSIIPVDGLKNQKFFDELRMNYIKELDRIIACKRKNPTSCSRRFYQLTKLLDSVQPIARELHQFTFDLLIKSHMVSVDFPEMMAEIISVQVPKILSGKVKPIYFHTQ
Protocol: Cell Culture, Transfection, and Reporter Gene Assay. The human prostate cancer cell lines, LNCaP, PC-3, and DU145, and non-prostate cancer cell line COS-1 were maintained in RPMI or Dulbecco's modified Eagle's medium (DMEM) (Life Technologies) supplemented with 10% fetal bovine serum (FBS). Transfections and luciferase (Luc) assays were performed as previously described (Miyamoto, H., Yeh, S., Wilding, G. & Chang, C. (1998) Proc. Natl. Acad. Sci. USA 95, 7379-7384; Miyamoto, H., Rahman, M., Takatera, H., Kang, H.-Y., Yeh, S., Chang, H.-C., Nishimura, K., Fujimoto, N. & Chang, C. (2002) J. Biol. Chem. 277, 4609-4617). Briefly, cells seeded to reach a density of 50-60% confluence in 12 well tissue culture plates were transfected with 1.5 μg of DNA according to “SuperFect transfection” instructions (Qiagen). After 2-3 h incubation, cells were treated with medium supplemented with charcoal-stripped FBS containing either ethanol or ligands for 24 h. The cells were then harvested and whole cell extracts were used for Luc assay. The Luc activity was determined using a Dual-Luciferase Reporter Assay System (Promega) and luminometer.
The effects of ADEK on the DHT-induced transcriptional activity of AR was examined in COS-1 or LNCaP cells transfected with MMTV-Luc. The pSG5-AR was co-transfected in COS-1 cells. […] Values were obtained from the mean±SD of at least three determinations. […]

[2] = biological target: T2, glucocorticoid receptor (GR) (Homo sapiens, UniProt P04150); experiment: Steroid hormone specificity, GR/MMTV-Luc in PC-3 cells; type: cell-based; conditions: PC-3, GR/MMTV-Luc, ADEK at 0.01 mM, 0.1 mM and 1.0 mM, 24 h
T2 construct: expressed in transfected cells; host or cells: PC-3
T2 sequence (P04150 1-777): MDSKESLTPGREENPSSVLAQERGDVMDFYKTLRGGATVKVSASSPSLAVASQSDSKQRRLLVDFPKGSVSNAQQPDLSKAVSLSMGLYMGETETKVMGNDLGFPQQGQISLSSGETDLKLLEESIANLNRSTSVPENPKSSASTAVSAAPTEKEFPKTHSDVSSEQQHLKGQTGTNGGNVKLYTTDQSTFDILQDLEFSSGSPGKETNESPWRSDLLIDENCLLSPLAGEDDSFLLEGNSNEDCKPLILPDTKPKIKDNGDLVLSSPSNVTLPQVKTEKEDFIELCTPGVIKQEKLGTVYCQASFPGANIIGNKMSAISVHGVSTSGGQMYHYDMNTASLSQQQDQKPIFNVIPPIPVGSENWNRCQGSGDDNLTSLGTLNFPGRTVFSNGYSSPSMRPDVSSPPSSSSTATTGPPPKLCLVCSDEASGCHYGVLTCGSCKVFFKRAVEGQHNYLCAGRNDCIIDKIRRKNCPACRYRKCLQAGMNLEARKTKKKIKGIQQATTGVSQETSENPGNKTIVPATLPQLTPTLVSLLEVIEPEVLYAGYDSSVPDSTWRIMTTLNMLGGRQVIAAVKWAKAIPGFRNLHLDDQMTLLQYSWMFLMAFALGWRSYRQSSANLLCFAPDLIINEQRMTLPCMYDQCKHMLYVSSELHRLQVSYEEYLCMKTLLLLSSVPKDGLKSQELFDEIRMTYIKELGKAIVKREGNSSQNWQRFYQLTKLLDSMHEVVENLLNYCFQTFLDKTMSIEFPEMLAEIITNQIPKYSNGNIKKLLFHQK
Protocol: Cell Culture, Transfection, and Reporter Gene Assay. The human prostate cancer cell lines, LNCaP, PC-3, and DU145, and non-prostate cancer cell line COS-1 were maintained in RPMI or Dulbecco's modified Eagle's medium (DMEM) (Life Technologies) supplemented with 10% fetal bovine serum (FBS). Transfections and luciferase (Luc) assays were performed as previously described (Miyamoto, H., Yeh, S., Wilding, G. & Chang, C. (1998) Proc. Natl. Acad. Sci. USA 95, 7379-7384; Miyamoto, H., Rahman, M., Takatera, H., Kang, H.-Y., Yeh, S., Chang, H.-C., Nishimura, K., Fujimoto, N. & Chang, C. (2002) J. Biol. Chem. 277, 4609-4617). Briefly, cells seeded to reach a density of 50-60% confluence in 12 well tissue culture plates were transfected with 1.5 μg of DNA according to “SuperFect transfection” instructions (Qiagen). […] The Luc activity was determined using a Dual-Luciferase Reporter Assay System (Promega) and luminometer.
Steroid Hormone Specificity of ADEK. To characterize the steroid hormone activity of ADEK, PC-3 cells were transfected with steroid receptor/reporter (progesterone receptor (PR)/MMTV-Luc, glucocorticoid receptor (GR)/MMTV-Luc, or estrogen receptor (ER)/ERE-Luc) and analyzed for expression of the Luc reporter gene. […] The Luc activity was measured relative to that of ETOH treatment (set as 1-fold). […]

Q: What does the source list for `CC(=O)O[C@H]1C=C[C@@]2(C)C(=CC[C@@H]3[C@@H]2CC[C@@]2(C)[C@H]3CCC23OCCO3)C1` [ADEK, 3β-acetoxy-17,17-ethylenedioxyandrosta-1,5-diene]?
A: enhancement of AR transactivation by ARA70 in the presence of compound [1]: < 2 fold; glucocorticoid activity (in words) [2]: no significant
